Results reported in ChEMBL document CHEMBL3817840, “Discovery of CNS Penetrant CXCR2 Antagonists for the Potential Treatment of CNS Demyelinating Disorders” (ACS Med Chem Lett, 2016).
Calls of active or inactive are those of the source. The calls are words filed in the database; no cut-off is given here.

Legend:
[1] = molecular target: T1, C-X-C chemokine receptor type 2 (Homo sapiens, UniProt P25025); assay: Antagonist activity at human recombinant Gal4-VP16 fused-CXCR2 assessed as inhibition of CXCL1-mediated lactamase reporter gene expression after overnight incubation
T1 sequence (P25025 whole entry): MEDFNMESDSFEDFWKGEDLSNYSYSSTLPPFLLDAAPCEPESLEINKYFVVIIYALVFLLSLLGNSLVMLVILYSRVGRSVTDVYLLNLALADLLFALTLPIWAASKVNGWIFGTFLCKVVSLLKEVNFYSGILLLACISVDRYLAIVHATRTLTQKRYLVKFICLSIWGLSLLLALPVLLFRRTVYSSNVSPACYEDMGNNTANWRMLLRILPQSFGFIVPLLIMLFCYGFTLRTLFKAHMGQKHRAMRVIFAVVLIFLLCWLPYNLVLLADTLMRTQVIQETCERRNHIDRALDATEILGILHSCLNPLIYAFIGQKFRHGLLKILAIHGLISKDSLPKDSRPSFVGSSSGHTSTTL

[2] = (§1) AUC (0 to 4 hrs) in C57BL/6 mouse blood at 2 mg/kg, ip by UPLC/MS/MS analysis; format: ADME, organism-based; set-up: dose 2 mg/kg, time < 4 hr, route intraperitoneal; settings: C57BL/6, mouse, blood
Brain = assay: AUC (0 to 4 hrs) in C57BL/6 mouse brain at 2 mg/kg, ip by UPLC/MS/MS analysis; format: ADME, organism-based; set-up: dose 2 mg/kg, time < 4 hr, route intraperitoneal; settings: in vivo
[3] = Half life in C57BL/6 mouse at 1 mg/kg, iv; format: ADME, organism-based; settings: in vivo
[4] = Clearance in C57BL/6 mouse blood at 1 mg/kg, iv; format: ADME, organism-based
[5] = Volume of distribution at steady state in C57BL/6 mouse at 1 mg/kg, iv; format: ADME, organism-based; settings: in vivo, read-out: Vdss
[6] = Cmax in C57BL/6 mouse at 2 mg/kg, po; format: ADME, organism-based; set-up: dose 2 mg/kg, route oral; settings: in vivo
Mus musculus [7] = assay: Dose normalized AUC (0 to infinity) in C57BL/6 mouse at 2 mg/kg, po; format: ADME, organism-based; settings: in vivo
[8] = Oral bioavailability in C57BL/6 mouse at 2 mg/kg; format: ADME, organism-based; settings: in vivo
[9] = Fraction unbound in human plasma; format: ADME, cell-free
Cytochrome P450 1A2 = molecular target: T2, Cytochrome P450 1A2 (Homo sapiens, UniProt P05177); assay: Inhibition of CYP1A2 (unknown origin); format: ADME
T2 sequence (P05177 whole entry): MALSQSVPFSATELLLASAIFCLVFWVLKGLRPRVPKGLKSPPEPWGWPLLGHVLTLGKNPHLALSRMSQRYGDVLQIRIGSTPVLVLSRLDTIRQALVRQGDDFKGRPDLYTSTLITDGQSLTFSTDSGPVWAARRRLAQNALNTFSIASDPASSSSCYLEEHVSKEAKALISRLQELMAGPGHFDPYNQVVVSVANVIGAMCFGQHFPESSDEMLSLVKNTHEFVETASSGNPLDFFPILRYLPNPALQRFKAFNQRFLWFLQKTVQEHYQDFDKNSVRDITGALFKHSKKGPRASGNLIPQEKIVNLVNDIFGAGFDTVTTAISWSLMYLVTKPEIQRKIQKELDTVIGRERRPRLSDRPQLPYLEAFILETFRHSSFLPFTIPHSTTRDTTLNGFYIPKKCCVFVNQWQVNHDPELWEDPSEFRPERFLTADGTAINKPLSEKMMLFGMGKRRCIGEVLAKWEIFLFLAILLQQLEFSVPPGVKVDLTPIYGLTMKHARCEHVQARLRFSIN

Cytochrome P450 2D6 = Cytochrome P450 2D6 (Homo sapiens, UniProt P10635); assay: Inhibition of CYP2D6 (unknown origin); format: ADME
Chain of Cytochrome P450 2D6 (P10635 whole entry): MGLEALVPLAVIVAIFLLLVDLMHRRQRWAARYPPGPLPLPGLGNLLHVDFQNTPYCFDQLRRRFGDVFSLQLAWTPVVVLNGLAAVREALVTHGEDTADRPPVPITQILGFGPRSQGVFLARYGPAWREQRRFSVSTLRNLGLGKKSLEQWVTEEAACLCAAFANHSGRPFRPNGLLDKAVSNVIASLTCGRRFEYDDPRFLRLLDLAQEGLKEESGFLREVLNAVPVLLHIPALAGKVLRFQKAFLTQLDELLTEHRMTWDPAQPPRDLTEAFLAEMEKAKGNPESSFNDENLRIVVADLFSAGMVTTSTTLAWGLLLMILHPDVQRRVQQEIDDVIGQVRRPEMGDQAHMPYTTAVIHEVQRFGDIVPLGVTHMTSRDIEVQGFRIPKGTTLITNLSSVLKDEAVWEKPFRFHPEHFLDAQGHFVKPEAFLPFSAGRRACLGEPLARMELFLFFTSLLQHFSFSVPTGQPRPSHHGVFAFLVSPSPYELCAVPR

Cytochrome P450 2C19 = Cytochrome P450 2C19 (Homo sapiens, UniProt P33261); assay: Inhibition of CYP2C19 (unknown origin); format: ADME
Chain of Cytochrome P450 2C19 (P33261 whole entry): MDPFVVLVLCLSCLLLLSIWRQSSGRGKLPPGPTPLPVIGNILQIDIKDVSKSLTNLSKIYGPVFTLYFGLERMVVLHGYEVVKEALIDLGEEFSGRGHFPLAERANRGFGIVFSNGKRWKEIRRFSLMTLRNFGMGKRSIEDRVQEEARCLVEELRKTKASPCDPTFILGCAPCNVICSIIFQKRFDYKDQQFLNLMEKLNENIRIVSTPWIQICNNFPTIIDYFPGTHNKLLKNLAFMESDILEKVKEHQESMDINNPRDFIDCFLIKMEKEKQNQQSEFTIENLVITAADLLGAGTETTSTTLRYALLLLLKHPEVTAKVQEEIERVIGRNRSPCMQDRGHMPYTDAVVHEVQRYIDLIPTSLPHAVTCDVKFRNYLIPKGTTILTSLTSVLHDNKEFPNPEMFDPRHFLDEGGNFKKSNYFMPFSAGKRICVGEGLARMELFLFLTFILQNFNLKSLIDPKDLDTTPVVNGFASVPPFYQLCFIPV

Cytochrome P450 3A4 = Cytochrome P450 3A4 (Homo sapiens, UniProt P08684); assay: Inhibition of CYP3A4 (unknown origin); format: ADME
Chain of Cytochrome P450 3A4 (P08684 whole entry): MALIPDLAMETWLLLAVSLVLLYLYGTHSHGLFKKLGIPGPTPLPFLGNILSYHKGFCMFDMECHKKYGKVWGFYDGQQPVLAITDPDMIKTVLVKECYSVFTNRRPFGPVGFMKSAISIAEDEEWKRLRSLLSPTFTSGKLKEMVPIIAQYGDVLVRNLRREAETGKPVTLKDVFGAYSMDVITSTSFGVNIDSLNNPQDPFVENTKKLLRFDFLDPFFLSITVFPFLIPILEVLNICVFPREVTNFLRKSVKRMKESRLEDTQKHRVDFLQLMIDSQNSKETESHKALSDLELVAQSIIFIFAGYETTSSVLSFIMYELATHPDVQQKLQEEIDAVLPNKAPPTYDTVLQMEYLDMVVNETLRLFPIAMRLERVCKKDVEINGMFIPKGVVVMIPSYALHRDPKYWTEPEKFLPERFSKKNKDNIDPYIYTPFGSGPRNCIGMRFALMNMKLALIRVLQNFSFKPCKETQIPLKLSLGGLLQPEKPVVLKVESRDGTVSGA

Cytochrome P450 2C9 = Cytochrome P450 2C9 (Homo sapiens, UniProt P11712)
Chain of Cytochrome P450 2C9 (P11712 whole entry): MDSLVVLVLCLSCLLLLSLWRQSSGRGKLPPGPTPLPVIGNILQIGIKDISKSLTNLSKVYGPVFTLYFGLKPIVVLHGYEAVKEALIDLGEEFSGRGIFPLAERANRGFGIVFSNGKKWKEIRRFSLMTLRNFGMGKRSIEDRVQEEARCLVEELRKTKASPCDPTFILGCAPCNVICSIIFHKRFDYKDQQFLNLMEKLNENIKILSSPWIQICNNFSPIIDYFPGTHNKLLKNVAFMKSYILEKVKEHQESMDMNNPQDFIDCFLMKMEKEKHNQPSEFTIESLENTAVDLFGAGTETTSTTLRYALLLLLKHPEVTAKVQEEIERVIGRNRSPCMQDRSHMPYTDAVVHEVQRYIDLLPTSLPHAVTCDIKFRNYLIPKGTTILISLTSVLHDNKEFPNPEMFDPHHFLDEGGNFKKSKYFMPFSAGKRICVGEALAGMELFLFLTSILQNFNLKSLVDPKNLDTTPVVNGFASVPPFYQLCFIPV
Description: Inhibition of CYP2C9 (unknown origin)

[10] = Ratio of drug level in C57BL/6 mouse brain to blood at 2 mg/kg, ip; format: ADME, organism-based; settings: for Kp: C57BL/6, mouse, brain/blood
[11] = Stability of the compound assessed as GSH conjugate formation; format: physicochemical
[12] = molecular target: Voltage-gated inwardly rectifying potassium channel KCNH2 (Homo sapiens, UniProt Q12809); assay: Binding affinity to human ERG
Chain of Voltage-gated inwardly rectifying potassium channel KCNH2 (Q12809 whole entry): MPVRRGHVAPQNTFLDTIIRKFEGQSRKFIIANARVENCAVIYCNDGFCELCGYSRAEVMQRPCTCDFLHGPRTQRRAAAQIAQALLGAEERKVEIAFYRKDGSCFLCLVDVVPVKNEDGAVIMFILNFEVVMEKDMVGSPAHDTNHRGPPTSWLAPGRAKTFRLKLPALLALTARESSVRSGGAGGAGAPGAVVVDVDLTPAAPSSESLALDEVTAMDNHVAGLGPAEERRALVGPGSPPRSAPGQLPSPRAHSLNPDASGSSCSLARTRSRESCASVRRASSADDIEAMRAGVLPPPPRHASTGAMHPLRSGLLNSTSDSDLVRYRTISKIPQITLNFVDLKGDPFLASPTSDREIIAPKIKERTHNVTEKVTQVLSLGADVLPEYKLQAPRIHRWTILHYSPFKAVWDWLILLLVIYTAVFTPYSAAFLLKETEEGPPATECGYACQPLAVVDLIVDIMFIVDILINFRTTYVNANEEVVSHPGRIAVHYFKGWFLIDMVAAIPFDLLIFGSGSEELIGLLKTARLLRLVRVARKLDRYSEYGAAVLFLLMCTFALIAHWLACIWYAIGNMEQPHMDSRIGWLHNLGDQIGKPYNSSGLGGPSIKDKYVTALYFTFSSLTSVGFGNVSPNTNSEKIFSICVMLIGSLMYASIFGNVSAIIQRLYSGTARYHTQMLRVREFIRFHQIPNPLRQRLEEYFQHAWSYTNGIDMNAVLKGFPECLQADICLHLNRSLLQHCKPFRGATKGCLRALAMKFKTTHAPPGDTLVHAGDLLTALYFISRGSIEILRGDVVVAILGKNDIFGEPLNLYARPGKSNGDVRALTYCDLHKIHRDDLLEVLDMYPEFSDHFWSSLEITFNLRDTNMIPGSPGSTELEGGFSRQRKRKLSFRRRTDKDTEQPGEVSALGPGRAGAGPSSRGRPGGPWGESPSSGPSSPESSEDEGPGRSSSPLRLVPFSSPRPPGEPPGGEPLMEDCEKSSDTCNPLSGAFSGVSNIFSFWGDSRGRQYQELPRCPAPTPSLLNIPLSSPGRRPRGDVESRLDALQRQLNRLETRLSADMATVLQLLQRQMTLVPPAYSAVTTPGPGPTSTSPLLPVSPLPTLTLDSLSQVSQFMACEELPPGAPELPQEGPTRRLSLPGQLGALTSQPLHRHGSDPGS

Blood = assay: as §1; format: ADME, organism-based; set-up: dose 2 mg/kg, time < 4 hr, route intraperitoneal; settings: mouse, in vivo, 4 h, BLD = below limit of detection
Mus musculus [13] = assay: Induction of remyelination in corpus callosum in cuprizone-induced C57BL/6 mouse demyelination model at 100 mg/kg, po bid for 9 consecutive days by black-gold myelin staining based microscopy; format: functional, organism-based

| Structure (SMILES) | IC50 [1] | AUC(0-t) at 4 h [2] | AUC (Brain) | Kp [10] | further results |
| --- | --- | --- | --- | --- | --- |
| CCN1CCC(S(=O)(=O)c2c(Cl)ccc(NC(=O)Nc3cccc(F)c3Cl)c2O)CC1 | 1.26 nM | 684 ng·h/mL | 244 ng·h/g |  | half-life [3]: 2.3 h; clearance [4]: 30.8 mL/min/kg; Vd [5]: 2.82 L/kg; Cmax [6]: 125 ng/mL; AUC/dose (Mus musculus [7]): 212 ng·h/mL/mg/kg; bioavailability [8]: 41%; Fu [9]: 0.036%; IC50 (Cytochrome P450 1A2): > 10000 nM; IC50 (Cytochrome P450 2D6): > 10000 nM; IC50 (Cytochrome P450 2C19): > 10000 nM; IC50 (Cytochrome P450 3A4): > 10000 nM; IC50 (Cytochrome P450 2C9): > 10000 nM |
| O=C(Nc1ccc(Cl)c(S(=O)(=O)C2CCOC2)c1O)Nc1cccc(Cl)c1Cl (stereo not drawn) | 0.501 nM | 284 ng·h/mL | 59 ng·h/g | 0.21 |  |
| CCS(=O)(=O)c1c(Cl)ccc(NC(=O)Nc2cccc(Cl)c2Cl)c1O | 0.501 nM | 256 ng·h/mL | 73.9 ng·h/g | 0.29 |  |
| CN1CC[C@H](S(=O)(=O)c2c(Cl)ccc(NC(=O)Nc3cccc(Cl)c3Cl)c2O)C1 | 1.26 nM | 577 ng·h/mL | 164 ng·h/g | 0.28 | half-life [3]: 1.9 h; clearance [4]: 15.4 mL/min/kg; Vd [5]: 1.72 L/kg; Cmax [6]: 216 ng/mL; AUC/dose (Mus musculus [7]): 271 ng·h/mL/mg/kg; bioavailability [8]: 26%; Fu [9]: 0.021%; IC50 (Cytochrome P450 1A2): > 10000 nM; IC50 (Cytochrome P450 2D6): > 10000 nM; IC50 (Cytochrome P450 2C19): > 10000 nM; IC50 (Cytochrome P450 3A4): > 10000 nM; Stability [11]: Stable; IC50 (Cytochrome P450 2C9): > 10000 nM |
| CN1CCC2(CC1)CC(S(=O)(=O)c1c(Cl)ccc(NC(=O)Nc3cccc(F)c3Cl)c1O)C2 | 2 nM | 1390 ng·h/mL | 111 ng·h/g | 0.08 |  |
| CC(C)S(=O)(=O)c1c(Cl)ccc(NC(=O)Nc2cccc(Cl)c2Cl)c1O | 0.631 nM | 290 ng·h/mL | 180 ng·h/g | 0.62 |  |
| CC(C)S(=O)(=O)c1c(Cl)ccc(NC(=O)Nc2cccc(F)c2Cl)c1O | 0.501 nM | 198 ng·h/mL | 95 ng·h/g | 0.48 |  |
| CN1CCC2(CCC(S(=O)(=O)c3c(Cl)ccc(NC(=O)Nc4cccc(F)c4Cl)c3O)CC2)CC1 | 0.398 nM | 1480 ng·h/mL | 69.3 ng·h/g | 0.05 |  |
| CN1CCC[C@H](S(=O)(=O)c2c(Cl)ccc(NC(=O)Nc3cccc(F)c3Cl)c2O)CC1 | 0.501 nM | 463 ng·h/mL | 99.1 ng·h/g | 0.21 |  |
| C[C@@H]1CN(S(=O)(=O)c2c(Cl)ccc(NC(=O)Nc3cccc(Cl)c3Cl)c2O)C[C@H](C)O1 | 10 nM | 519 ng·h/mL | 73 ng·h/g | 0.14 |  |
| CN1CCC(S(=O)(=O)c2c(Cl)ccc(NC(=O)Nc3cccc(Cl)c3Cl)c2O)CC1 | 1.58 nM | 600 ng·h/mL | 358 ng·h/g |  | half-life [3]: 2 h; clearance [4]: 15.6 mL/min/kg; Vd [5]: 2.12 L/kg; Cmax [6]: 132 ng/mL; AUC/dose (Mus musculus [7]): 299 ng·h/mL/mg/kg; bioavailability [8]: 30%; Fu [9]: 0.1%; IC50 (Cytochrome P450 1A2): > 10000 nM; IC50 (Cytochrome P450 2C19): > 10000 nM; IC50 (Cytochrome P450 3A4): > 10000 nM; Stability [11]: Stable; IC50 [12]: > 79400 nM |
| O=C(Nc1ccc(Cl)c(C(=O)N2CCCCC2)c1O)Nc1cccc(F)c1Cl | 0.501 nM |  |  |  | AUC (Blood): BLD; AUC (Brain; BLD = below limit of detection): BLD; Ratio ([10]; mouse, brain, BLD = below limit of detection): BLD |
| CN1CCC(S(=O)(=O)c2c(Cl)ccc(NC(=O)Nc3cccc(F)c3Cl)c2O)CC1 | 0.501 nM | 735 ng·h/mL | 335 ng·h/g |  | half-life [3]: 2.8 h; clearance [4]: 16.9 mL/min/kg; Vd [5]: 3.17 L/kg; Cmax [6]: 157 ng/mL; AUC/dose (Mus musculus [7]): 354 ng·h/mL/mg/kg; bioavailability [8]: 41%; Fu [9]: 0.13%; Stability [11]: Stable; Activity (Mus musculus [13]): Active |
| CC(C)(C)S(=O)(=O)c1c(Cl)ccc(NC(=O)Nc2cccc(F)c2Cl)c1O | 0.501 nM | 355 ng·h/mL | 369 ng·h/g | 1.04 |  |
| O=C(Nc1ccc(Cl)c(S(=O)(=O)C2CCCC2)c1O)Nc1cccc(F)c1Cl | 0.316 nM | 2.98 ng·h/mL | 1.26 ng·h/g | 0.42 |  |
